What was measured:
muscarinic M3 receptor = target: T1, muscarinic M3 receptor (Homo sapiens, UniProt P20309); assay: Binding assay M3 (h), [3H]4-DAMP, CHO cells; conditions: read-out: M3 [%]
T1 construct: expressed in transfected cells; host or cells: CHO cells
How it was run: (§1)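 Test conc. 1×10^−6 M. Read-out by scintillation counting. Specific = total − nonspecific (excess cold ligand).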

[1] = target: T2, serotoninergic receptor 5-HT2C (Homo sapiens, UniProt P28335); assay: Binding assay 5-HT2C (h), [3H]mesulergine, HEK-293 cells; conditions: read-out: 5-HT2C [%]
T2 construct: expressed in transfected cells; host or cells: HEK-293 cells
T2 sequence (P28335 33-458): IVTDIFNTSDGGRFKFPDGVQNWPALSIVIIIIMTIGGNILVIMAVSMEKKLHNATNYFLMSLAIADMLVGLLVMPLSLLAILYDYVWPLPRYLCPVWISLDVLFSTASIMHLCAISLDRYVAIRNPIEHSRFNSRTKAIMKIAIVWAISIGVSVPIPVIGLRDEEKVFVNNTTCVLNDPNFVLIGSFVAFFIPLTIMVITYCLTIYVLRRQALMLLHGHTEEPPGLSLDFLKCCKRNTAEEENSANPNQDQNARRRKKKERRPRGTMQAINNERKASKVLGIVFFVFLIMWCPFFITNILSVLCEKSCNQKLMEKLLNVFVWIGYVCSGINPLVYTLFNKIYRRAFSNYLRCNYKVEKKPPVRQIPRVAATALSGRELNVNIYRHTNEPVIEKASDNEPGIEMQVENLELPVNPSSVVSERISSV
How it was run: as §1

dopaminergic D3 receptor [2] = target: T3, dopaminergic D3 receptor (Homo sapiens, UniProt P35462); assay: Cellular functional assay, dopaminergic D3 receptor (agonism/antagonism); format: cell-based; conditions: for inhibition at 1 µM: CHO, read-out: D3-antag. [%]; for activation at 1 µM: agonist effect, percent of control specific agonist response (300 nM dopamine for control), 1×10^−6 M, D3 (h), CHO cells, read-out: D3-ag [%]
T3 sequence (P35462 whole entry): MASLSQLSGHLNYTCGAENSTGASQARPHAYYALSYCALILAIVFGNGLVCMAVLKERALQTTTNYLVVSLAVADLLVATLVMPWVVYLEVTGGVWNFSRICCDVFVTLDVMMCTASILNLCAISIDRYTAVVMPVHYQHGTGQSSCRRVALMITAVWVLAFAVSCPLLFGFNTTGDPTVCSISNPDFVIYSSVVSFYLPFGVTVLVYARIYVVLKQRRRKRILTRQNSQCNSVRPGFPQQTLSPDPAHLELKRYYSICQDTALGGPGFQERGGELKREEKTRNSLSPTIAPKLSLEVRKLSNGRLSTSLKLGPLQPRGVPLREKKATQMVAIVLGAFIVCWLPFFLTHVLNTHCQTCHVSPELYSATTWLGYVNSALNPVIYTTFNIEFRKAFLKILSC
Protocol: (§2) The compounds were tested at the concentration of 1×10^−6M.
(§3) In the Tables ag refers to agonism, and antag to antagonism).

[3] = target: serotoninergic 5-HT2A receptor (Homo sapiens, UniProt P28223); assay: Cellular functional assay, serotoninergic 5-HT2A receptor (agonism/antagonism); format: cell-based; conditions: for activation at 1 µM: read-out: 5-HT2A -ag [%]; for inhibition at 1 µM: read-out: 5-HT2A -antag [%]
Chain of serotoninergic 5-HT2A receptor (P28223 whole entry): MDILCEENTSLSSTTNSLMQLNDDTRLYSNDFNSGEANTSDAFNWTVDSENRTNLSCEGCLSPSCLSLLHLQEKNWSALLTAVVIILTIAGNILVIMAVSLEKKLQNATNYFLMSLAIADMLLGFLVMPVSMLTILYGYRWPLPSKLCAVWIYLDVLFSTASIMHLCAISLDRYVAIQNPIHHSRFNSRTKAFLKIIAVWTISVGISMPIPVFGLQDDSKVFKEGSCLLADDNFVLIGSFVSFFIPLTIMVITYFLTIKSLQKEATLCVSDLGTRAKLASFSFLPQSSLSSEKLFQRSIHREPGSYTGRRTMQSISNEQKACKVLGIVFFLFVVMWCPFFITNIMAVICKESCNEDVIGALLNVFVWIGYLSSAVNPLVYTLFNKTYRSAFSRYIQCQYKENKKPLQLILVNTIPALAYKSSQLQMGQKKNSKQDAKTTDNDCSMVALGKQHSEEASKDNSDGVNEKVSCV
How it was run: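 Human receptors tested in cell-based functional format for both agonist and antagonist modes. Single compound concentration of 1×10^−6M.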

[4] = target: T4, serotoninergic 5-HT6 receptor (Homo sapiens, UniProt P50406); assay: Cellular functional assay, serotoninergic 5-HT6 receptor (agonism/antagonism); format: cell-based; conditions: for activation at 1 µM: agonist effect, percent of control specific agonist response, compounds tested at 1×10^−6M, read-out: 5-HT6-ag [%]; for inhibition at 1 µM: read-out: 5-HT6-antag. [%]
T4 sequence (P50406 whole entry): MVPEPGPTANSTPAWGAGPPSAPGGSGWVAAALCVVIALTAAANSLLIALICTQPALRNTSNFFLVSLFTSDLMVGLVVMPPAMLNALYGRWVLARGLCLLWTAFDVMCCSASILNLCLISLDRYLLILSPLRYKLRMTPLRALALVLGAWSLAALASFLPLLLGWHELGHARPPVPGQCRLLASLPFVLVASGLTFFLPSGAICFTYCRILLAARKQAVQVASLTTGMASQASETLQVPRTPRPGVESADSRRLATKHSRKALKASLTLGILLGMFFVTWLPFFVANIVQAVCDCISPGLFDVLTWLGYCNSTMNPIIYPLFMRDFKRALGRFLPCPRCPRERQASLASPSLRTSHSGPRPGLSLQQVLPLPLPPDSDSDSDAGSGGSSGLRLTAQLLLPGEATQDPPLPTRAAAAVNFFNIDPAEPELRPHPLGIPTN
Protocol: as §2, §3

adrenergic α2C receptor [5] = target: T5, adrenergic α2C receptor (Homo sapiens, UniProt P18825); assay: Cellular functional assay, adrenergic α2C receptor (agonism/antagonism); format: cell-based; conditions: for activation at 1 µM: agonist effect, percent of control specific agonist response, compounds tested at 1×10^−6M, read-out: α2C −ag [%]; for inhibition at 1 µM: read-out: α2C −antag. [%]
T5 sequence (P18825 1-462): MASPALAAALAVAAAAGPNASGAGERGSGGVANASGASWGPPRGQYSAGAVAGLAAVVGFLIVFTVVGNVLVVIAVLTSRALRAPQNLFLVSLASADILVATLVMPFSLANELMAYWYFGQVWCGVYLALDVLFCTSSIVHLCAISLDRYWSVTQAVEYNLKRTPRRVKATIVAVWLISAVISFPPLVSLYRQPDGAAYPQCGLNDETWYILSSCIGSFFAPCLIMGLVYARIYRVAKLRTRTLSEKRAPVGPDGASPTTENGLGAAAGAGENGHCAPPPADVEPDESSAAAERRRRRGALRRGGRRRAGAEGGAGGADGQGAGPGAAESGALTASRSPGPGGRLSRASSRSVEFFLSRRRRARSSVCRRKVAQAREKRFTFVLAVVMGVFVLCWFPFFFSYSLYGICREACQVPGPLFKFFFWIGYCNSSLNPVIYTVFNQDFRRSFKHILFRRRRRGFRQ
Protocol: as §2, §3

dopaminergic D3 receptor [6] = target: T3, dopaminergic D3 receptor; assay: Binding assay D3 (h), [3H]methyl-spiperone, CHO cells; design: expressed in transfected cells; host or cells: CHO cells; conditions: read-out: D3 [%]
How it was run: as §1

[7] = target: T4, serotoninergic 5-HT6 receptor; assay: Binding assay 5-HT6 (h), [3H]LSD, CHO cells; design: expressed in transfected cells; host or cells: CHO cells; conditions: read-out: 5-HT6
How it was run: as §1

[8] = target: serotoninergic 5-HT7 receptor (Homo sapiens, UniProt P34969); assay: Binding assay 5-HT7 (h), [3H]LSD, CHO cells; design: expressed in transfected cells; host or cells: CHO cells; conditions: read-out: 5-HT7
Chain of serotoninergic 5-HT7 receptor (P34969 whole entry): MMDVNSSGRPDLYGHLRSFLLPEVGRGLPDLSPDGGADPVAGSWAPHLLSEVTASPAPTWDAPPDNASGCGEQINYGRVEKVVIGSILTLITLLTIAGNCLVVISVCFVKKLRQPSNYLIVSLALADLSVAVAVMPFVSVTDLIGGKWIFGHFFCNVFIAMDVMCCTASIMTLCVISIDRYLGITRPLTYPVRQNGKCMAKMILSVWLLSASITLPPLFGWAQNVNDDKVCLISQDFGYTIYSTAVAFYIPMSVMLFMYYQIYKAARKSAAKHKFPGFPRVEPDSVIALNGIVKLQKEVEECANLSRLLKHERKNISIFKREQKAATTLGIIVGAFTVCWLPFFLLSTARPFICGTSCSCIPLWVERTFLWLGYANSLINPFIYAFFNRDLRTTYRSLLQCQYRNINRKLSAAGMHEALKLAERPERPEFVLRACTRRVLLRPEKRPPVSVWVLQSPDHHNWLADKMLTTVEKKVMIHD
How it was run: as §1

adrenergic α2C receptor [9] = target: T5, adrenergic α2C receptor; assay: Binding assay α2C (h), [3H]RX 821002, CHO cells; design: expressed in transfected cells; host or cells: CHO cells; conditions: read-out: α2C [%]
How it was run: as §1

[10] = target: histaminergic H1 receptor (Homo sapiens, UniProt P35367); assay: Binding assay H1 (h), [3H]pyrilamine, HEK-293 cells; design: expressed in transfected cells; host or cells: HEK-293 cells; conditions: read-out: H1 [%]
Chain of histaminergic H1 receptor (P35367 whole entry): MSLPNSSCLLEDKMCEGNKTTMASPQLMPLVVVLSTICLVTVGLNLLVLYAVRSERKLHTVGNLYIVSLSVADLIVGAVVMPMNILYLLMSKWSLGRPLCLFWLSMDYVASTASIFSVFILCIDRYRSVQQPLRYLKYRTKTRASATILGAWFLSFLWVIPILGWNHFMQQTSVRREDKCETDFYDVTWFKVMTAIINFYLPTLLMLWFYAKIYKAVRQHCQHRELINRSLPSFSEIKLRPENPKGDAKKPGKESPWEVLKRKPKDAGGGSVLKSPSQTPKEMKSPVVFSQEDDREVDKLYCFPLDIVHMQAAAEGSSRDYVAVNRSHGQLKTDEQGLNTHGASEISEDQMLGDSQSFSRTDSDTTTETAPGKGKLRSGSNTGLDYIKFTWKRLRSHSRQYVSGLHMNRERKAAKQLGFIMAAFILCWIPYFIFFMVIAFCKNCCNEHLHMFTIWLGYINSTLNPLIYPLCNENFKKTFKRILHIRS
How it was run: as §1

T1 sequence (P20309 whole entry): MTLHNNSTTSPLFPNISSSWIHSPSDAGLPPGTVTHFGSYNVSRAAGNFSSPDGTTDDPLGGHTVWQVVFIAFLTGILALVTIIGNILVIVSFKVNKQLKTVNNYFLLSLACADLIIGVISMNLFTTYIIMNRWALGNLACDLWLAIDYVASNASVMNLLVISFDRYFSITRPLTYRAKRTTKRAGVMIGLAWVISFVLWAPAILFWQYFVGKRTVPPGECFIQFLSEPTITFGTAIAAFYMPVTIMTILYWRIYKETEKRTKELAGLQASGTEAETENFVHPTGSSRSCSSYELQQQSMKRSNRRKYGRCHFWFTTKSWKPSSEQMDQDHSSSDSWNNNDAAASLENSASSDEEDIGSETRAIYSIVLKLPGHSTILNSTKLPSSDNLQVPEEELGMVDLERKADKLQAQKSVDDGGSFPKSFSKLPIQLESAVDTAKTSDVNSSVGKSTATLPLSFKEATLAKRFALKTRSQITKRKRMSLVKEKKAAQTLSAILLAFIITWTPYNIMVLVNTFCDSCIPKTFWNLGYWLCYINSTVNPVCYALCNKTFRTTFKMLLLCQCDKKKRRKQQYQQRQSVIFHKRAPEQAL

Row | SMILES | inhibition at 1 µM (muscarinic M3 receptor) [%] | inhibition at 1 µM [1] [%] | inhibition at 1 µM (dopaminergic D3 receptor [2]) [%] | activation at 1 µM (dopaminergic D3 receptor [2]) [%] | activation at 1 µM [3] [%] | inhibition at 1 µM [3] [%] | activation at 1 µM [4] [%] | inhibition at 1 µM [4] [%] | activation at 1 µM (adrenergic α2C receptor [5]) [%] | inhibition at 1 µM (adrenergic α2C receptor [5]) [%] | inhibition at 1 µM (dopaminergic D3 receptor [6]) [%] | inhibition at 1 µM [7] [%] | inhibition at 1 µM [8] [%] | inhibition at 1 µM (adrenergic α2C receptor [9]) [%] | inhibition at 1 µM [10] [%]
1 | O=S(=O)(NCCCCN1CCN(c2nsc3ccccc23)CC1)c1cc2ccccc2s1 [Compound 239, N-[4-[4-(1,2-Benzothiazol-3-yl)piperazin-1-yl]butyl]benzothiophene-2-sulphonamide] | 9 | 88 | 84 | 6 | -2 | 94 | 0 | 70 | 3 | 33 | 102 | 96 | 98 | 105 | 98
2 | O=S(=O)(NCCCCN1CCN(c2nsc3ccccc23)CC1)c1csc2ccccc12 [Compound 240, N-[4-[4-(1,2-Benzothiazol-3-yl)piperazin-1-yl]butyl]benzothiophene-3-sulphonamide] | 15 | 78 | 72 | 8 | -3 | 93 | -2 | 71 | 13 | 35 | 99 | 98 | 97 | 100 | 92
3 | O=S(=O)(NCCCCN1CCN(c2nsc3ccccc23)CC1)c1cc2ccc(Cl)cc2s1 [Compound 241, N-[4-[4-(1,2-Benzothiazol-3-yl)piperazin-1-yl]butyl]-6-chlorobenzothiophene-2-sulphonamide] | 4 | 96 | 78 | 7 | -2 | 99 | 0 | 69 | -1 | 14 | 97 | 96 | 99 | 98 | 97
4 | O=S(=O)(NCCCCN1CCN(c2noc3ccccc23)CC1)c1ccc(-c2ccccc2)cc1 [Compound 283, N-[4-[4-(1,2-Benzoxazol-3-yl)piperazin-1-yl]butyl]-4-phenylbenzenesulphonamide] | -4 | 80 | 58 | -10 | 0 | 99 | 0 | 64 | 2 | 25 | 101 | 96 | 99 | 109 | 96
5 | O=S(=O)(NCCCCN1CCN(c2noc3ccccc23)CC1)c1cc2ccc(Cl)cc2s1 [Compound 288, N-[4-[4-(1,2-Benzoxazol-3-yl)piperazin-1-yl]butyl]-6-chlorobenzothiophene-2-sulphonamide] | 3 | 32 | 72 | 0 | -2 | 97 | 0 | 74 | 1 | 13 | 102 | 98 | 100 | 109 | 94
6 | O=S(=O)(NCCCCN1CCC(c2noc3cc(F)ccc23)CC1)c1ccc(Br)cc1 [Compound 298, 4-Bromo-N-[4-[4-(6-fluoro-1,2-benzoxazol-3-yl)piperidin-1-yl]butyl]benzenesulphonamide] | 19 | 52 | 99 | -8 | -1 | 99 | 0 | 89 | -4 | 39 | 98 | 98 | 100 | 98 | 90
7 | O=S(=O)(NCCCCN1CCC(c2noc3cc(F)ccc23)CC1)c1cc2ccccc2s1 [Compound 312, N-[4-[4-(6-Fluoro-1,2-benzoxazol-3-yl)piperidin-1-yl]butyl]benzothiophene-2-sulphonamide] | 19 | 80 | 97 | 10 | -2 | 98 | -1 | 76 | 61 | 39 | 97 | 98 | 97 | 92 | 86
8 | O=S(=O)(NCCCCN1CCC(c2noc3cc(F)ccc23)CC1)c1csc2ccccc12 [Compound 313, N-[4-[4-(6-Fluoro-1,2-benzoxazol-3-yl)piperidin-1-yl]butyl]benzothiophene-3-sulphonamide] | 25 | 59 | 81 | 8 | -3 | 98 | -3 | 91 | -11 | 46 | 99 | 100 | 100 | 100 | 90
9 | O=S(=O)(NCCCCN1CCC(c2noc3cc(F)ccc23)CC1)c1cc2ccc(Cl)cc2s1 [Compound 314, 6-Chloro-N-[4-[4-(6-fluoro-1,2-benzoxazol-3-yl)piperidin-1-yl]butyl]benzothiophene-2-sulphonamide] | 13 | 85 | 110 | -30 | -2 | 99 | 0 | 91 | -2 | 30 | 100 | 100 | 99 | 108 | 93
